Experimental data as given in patent US11591341B2 (ALIGOS THERAPEUTICS, INC., priority 2019, dated 2023).
pEC50: −log10 of the molar value.

System: HBV
Assay: HBV-DNA Antiviral Assay Using HepG2.117 Cells (intracellular HBV DNA by qPCR)
Assay type: cell-based, hepatitis B virus (genotype D)
Details: Hepatitis B virus, HepG2.117
Procedure: The following assay procedure describes the HBV antiviral assay, using HepG2.117 cells, which carry a stably integrated genotype D HBV genome under the control of a Tet-off promoter, and intracellular HBV DNA quantification as endpoint. Cell viability is assessed in parallel by measuring the intracellular ATP content using ATPlite (Perkin Elmer).
On day 0, HepG2.117 cells (which are maintained in routine cell culture with doxycycline present in the medium at a final concentration of 1 μg/mL) were seeded in 96-well plates (white with clear bottom) at a density of 2.0×10^4 cells/well (0.1 mL/well) in medium without doxycycline to induce pgRNA transcription and subsequent formation of HBV particles. The cells were incubated at 37° C. and 5% CO2.
On day 1, medium was removed from each well, the test articles were diluted in culture medium without doxcycyline and 100 μL was added to cell culture wells (9 concentrations, 4-fold dilution). For each plate, 6 untreated (merely DMSO) wells were included. The final concentration of DMSO in the culture medium was 2%. Each plate was prepared in duplicate (one for HBV DNA extraction, one for ATPlite measurement). The cells were incubated at 37° C. and 5% CO2 for 3 days.
On day 4, cell viability was assessed using ATPlite and cell lysates were prepared for HBV DNA extraction and subsequent quantification by qPCR.
Medium was removed from each well and 100 μL of 0.33% NP-40 in H2O was added to each well. Plates were sealed, incubated at 4° C. for 5 mins, vortexed extensively and centrifuged briefly. Next, 35 μL of lysate was added to 65 μL QuickExtract DNA Extraction Solution (Epicentre) in a PCR plate for each well. PCR plate was incubated at 65° C. for 6 mins, 98° C. for 2 mins and finally cooled to 4° C. HBV DNA was then quantified by qPCR with HBV-specific primers and probes as specified in Table 3 using the Bio-Rad SSOAdvanced Universal Probes Supermix on a CFX96 machine (Bio-Rad). The PCR cycle program consisted of 95° C. for 3 mins, followed by 40 cycles at 95° C. for 10 sec and 60° C. for 30 sec.
A DNA standard was prepared by dilution of an IDT gBlock corresponding to the amplicon with concentrations ranging from 10^2 to 10^8 copies/input (i.e. per 4 μL) and used to generate a standard curve by plotting Cq values vs. HBV DNA standard concentration. The quantity of HBV DNA in each sample was determined by interpolating from the standard curve.
Cell viability was calculated as follows: % Cell viability=(luminescence value of test sample)/(average luminescence value of 2% DMSO control)×100%. HBV DNA inhibition was calculated as follows: 100−(HBV DNA copy number of test sample)/(average HBV DNA copy number of 2% DMSO control)×100%. No normalization to entecavir was required due to the excellent dynamic window of this assay. The CC50, EC50 and EC90 values were determined by dose-response curves fitted by GraphPad Prism using “log (agonist) vs. response—Variable slope”.

## CC1Cn2c(c(C(=O)N[C@@H](C)c3ccccc3F)n(-c3ccc(OC4CC4)cc3)c2=O)CN1C(=O)c1ccc(Br)c(Cl)c1 (mixture of isomers) [Example 334, (6SR)-7-(4-bromo-3-chloro-benzoyl)-2-[4-(cyclopropoxy)phenyl]-N-[(1S)-1-(2-fluorophenyl)ethyl]-6-methyl-3-oxo-6,8-dihydro-5H-imidazo[1,5-a]pyrazine-1-carboxamide]
  pEC50: 6.30 to 7.00

## CC(NC(=O)c1c2n(c(=O)n1-c1ccc(OC3CC3)cc1)CCN(C(=O)c1ccc(Br)c(Cl)c1)C2)c1ccc(C#N)cc1F (racemic) [Example 340, 7-(4-bromo-3-chloro-benzoyl)-2-[4-(cyclopropoxy)phenyl]-3-oxo-N-[rac-(1S)-1-(4-cyano-2-fluoro-phenyl)ethyl]-6,8-dihydro-5H-imidazo[1,5-a]pyrazine-1-carboxamide]
  pEC50: 6.30 to 7.00

## C[C@@H](NC(=O)c1c2n(c(=O)n1-c1ccc(OC3CC3)cc1)CCN(C(=O)c1ccc(Br)c(Cl)c1)C2)c1ccc(C#N)cc1F (racemic) [Example 341, 7-(4-bromo-3-chloro-benzoyl)-2-[4-(cyclopropoxy)phenyl]-3-oxo-N-[rac-(1R)-1-(4-cyano-2-fluoro-phenyl)ethyl]-6,8-dihydro-5H-imidazo[1,5-a]pyrazine-1-carboxamide]
  pEC50: 5.30 to 6.30

## CC(NC(=O)c1c2n(c(=O)n1-c1ccc(OCC(F)(F)F)cc1)CCN(C(=O)c1ccc(Br)c(Cl)c1)C2)c1ccc(OC2COC2)cc1F (racemic) [Example 348, 7-(4-bromo-3-chloro-benzoyl)-3-oxo-N-[rac-(1R)-1-[2-fluoro-4-(oxetan-3-yloxy)phenyl]ethyl]-2-[4-(2,2,2-trifluoroethoxy)phenyl]-6,8-dihydro-5H-imidazo[1,5-a]pyrazine-1-carboxamide]
  pEC50: 5.30 to 6.30

## C[C@H](NC(=O)c1c2n(c(=O)n1-c1ccc(OC3CC3)cc1)CCN(C(=O)c1ccc(Br)c(Cl)c1)C2)c1ccc(OCC(N)=O)cc1-n1cccn1 (racemic) [Example 378, 7-(4-bromo-3-chloro-benzoyl)-2-[4-(cyclopropoxy)phenyl]-3-oxo-N-[rac-(1S)-1-[4-(2-amino-2-oxo-ethoxy)-2-pyrazol-1-yl-phenyl]ethyl]-6,8-dihydro-5H-imidazo[1,5-a]pyrazine-1-carboxamide]
  pEC50: < 5.30

## CC(NC(=O)c1c2n(c(=O)n1-c1ccc(OC3CC3)cc1)CCN(C(=O)c1ccc(Br)c(Cl)c1)C2)c1ccc(OCC(N)=O)cc1-n1cccn1 (racemic) [Example 379, 7-(4-bromo-3-chloro-benzoyl)-2-[4-(cyclopropoxy)phenyl]-3-oxo-N-[rac-(1R)-1-[4-(2-amino-2-oxo-ethoxy)-2-pyrazol-1-yl-phenyl]ethyl]-6,8-dihydro-5H-imidazo[1,5-a]pyrazine-1-carboxamide]
  pEC50: < 5.30

## CC(NC(=O)c1c2n(c(=O)n1-c1ccc(OC3CC3)cc1)CCN(C(=O)c1ccc(Br)c(Cl)c1)C2)c1cccc2nccnc12 (racemic) [Example 382, 7-(4-bromo-3-chloro-benzoyl)-2-[4-(cyclopropoxy)phenyl]-3-oxo-N-[rac-(1S)-1-quinoxalin-5-ylethyl]-6,8-dihydro-5H-imidazo[1,5-a]pyrazine-1-carboxamide]
  pEC50: > 7.00

## C[C@@H](NC(=O)c1c2n(c(=O)n1-c1ccc(OC3CC3)cc1)CCN(C(=O)c1ccc(Br)c(Cl)c1)C2)c1cccc2nccnc12 (racemic) [Example 383, 7-(4-bromo-3-chloro-benzoyl)-2-[4-(cyclopropoxy)phenyl]-3-oxo-N-[rac-(1R)-1-quinoxalin-5-ylethyl]-6,8-dihydro-5H-imidazo[1,5-a]pyrazine-1-carboxamide]
  pEC50: 6.30 to 7.00

## CC(Oc1ccc(CNC(=O)c2c3n(c(=O)n2-c2ccc(OC4CC4)cc2)CCN(C(=O)c2ccc(Br)c(Cl)c2)C3)c(F)c1)C(N)=O (racemic) [Example 394, 7-(4-bromo-3-chloro-benzoyl)-2-[4-(cyclopropoxy)phenyl]-N-[[2-fluoro-4-[rac-(1S)-2-amino-1-methyl-2-oxo-ethoxy]phenyl]methyl]-3-oxo-6,8-dihydro-5H-imidazo[1,5-a]pyrazine-1-carboxamide]
  pEC50: 6.30 to 7.00

## C[C@@H](Oc1ccc(CNC(=O)c2c3n(c(=O)n2-c2ccc(OC4CC4)cc2)CCN(C(=O)c2ccc(Br)c(Cl)c2)C3)c(F)c1)C(N)=O (racemic) [Example 406, 7-(4-bromo-3-chloro-benzoyl)-2-[4-(cyclopropoxy)phenyl]-N-[[2-fluoro-4-[rac-(1R)-2-amino-1-methyl-2-oxo-ethoxy]phenyl]methyl]-3-oxo-6,8-dihydro-5H-imidazo[1,5-a]pyrazine-1-carboxamide]
  pEC50: 6.30 to 7.00

## COc1ccc(C(C)NC(=O)c2c3n(c(=O)n2-c2ccc(-n4cccn4)cc2)CCN(C(=O)c2ccc(Br)c(Cl)c2)C3)c(F)c1 (racemic) [Example 413, 7-(4-bromo-3-chloro-benzoyl)-3-oxo-2-(4-pyrazol-1-ylphenyl)-N-[rac-(1R)-1-(2-fluoro-4-methoxy-phenyl)ethyl]-6,8-dihydro-5H-imidazo[1,5-a]pyrazine-1-carboxamide]
  pEC50: > 7.00

## C[C@@H]1CN(c2ccc(-n3c(C(=O)NCc4ccccc4)c4n(c3=O)CCN(C(=O)c3ccc(Br)c(Cl)c3)C4)cc2)CCO1 (racemic) [Example 416, N-benzyl-7-(4-bromo-3-chloro-benzoyl)-3-oxo-2-[4-[rac-(2R)-2-methylmorpholin-4-yl]phenyl]-6,8-dihydro-5H-imidazo[1,5-a]pyrazine-1-carboxamide]
  pEC50: 6.30 to 7.00

## O=C(NCc1ccccc1)c1c2n(c(=O)n1-c1ccc(N3CCO[C@H](C(F)(F)F)C3)cc1)CCN(C(=O)c1ccc(Br)c(Cl)c1)C2 (racemic) [Example 417, N-benzyl-7-(4-bromo-3-chloro-benozyl)-3-oxo-2-[4-[rac-(2S)-2-(trifluoromethyl)morpholin-4-yl]phenyl]-6,8-dihydro-5H-imidazo[1,5-a]pyrazine-1-carboxamide]
  pEC50: 6.30 to 7.00

## COc1ccc(C(C)NC(=O)c2c3n(c(=O)n2-c2ccc(OC4CC4)cc2)CCN(C(=O)c2ccc(Br)c(Cl)c2)C3)c(F)c1 (racemic) [Example 420, 7-(4-bromo-3-chloro-benzoyl)-2-[4-(cyclopropoxy)phenyl]-3-oxo-N-[rac-(1R)-1-(2-fluoro-4-methoxy-phenyl)ethyl]-6,8-dihydro-5H-imidazo[1,5-a]pyrazine-1-carboxamide]
  pEC50: > 7.00

## COc1ccc([C@H](C)NC(=O)c2c3n(c(=O)n2-c2ccc(OC4CC4)cc2)CC(C)N(C(=O)c2ccc(Br)c(Cl)c2)C3)cc1 (mixture of isomers) [Example 437, (6RS)-7-(4-bromo-3-chloro-benzoyl)-2-[4-(cyclopropoxy)phenyl]-N-[(1S)-1-(4-methoxyphenyl)ethyl]-6-methyl-3-oxo-6,8-dihydro-5H-imidazo[1,5-a]pyrazine-1-carboxamide]
  pEC50: 5.30 to 6.30

## CC1Cn2c(c(C(=O)NCc3ccccc3-n3cc(F)cn3)n(-c3ccc(OC4CC4)cc3)c2=O)CN1C(=O)c1ccc(Br)c(Cl)c1 (racemic) [Example 440, rac-(6S)-7-(4-bromo-3-chloro-benzoyl)-2-[4-(cyclopropoxy)phenyl]-N-[[2-(4-fluoropyrazol-1-yl)phenyl]methyl]-6-methyl-3-oxo-6,8-dihydro-5H-imidazo[1,5-a]pyrazine-1-carboxamide]
  pEC50: > 7.00

## C[C@@H]1Cn2c(c(C(=O)NCc3ccccc3-n3cc(F)cn3)n(-c3ccc(OC4CC4)cc3)c2=O)CN1C(=O)c1ccc(Br)c(Cl)c1 (racemic) [Example 441, rac-(6R)-7-(4-bromo-3-chloro-benzoyl)-2-[4-(cyclopropxy)phenyl]-N-[[2-(4-fluoropyrazol-1-yl)phenyl]methyl]-6-methyl-3-oxo-6,8-dihydro-5H-imidazo[1,5-a]pyrazine-1-carboxamide]
  pEC50: 6.30 to 7.00

## COc1ccc([C@@H](C)NC(=O)c2c3n(c(=O)n2-c2ccc(OC4CC4)cc2)CC(C)N(C(=O)c2ccc(Br)c(Cl)c2)C3)cc1 (mixture of isomers) [Example 449, (6RS)-7-(4-bromo-3-chloro-benzoyl)-2-[4-(cyclopropoxy)phenyl]-N-[(1R)-1-(4-methoxyphenyl)ethyl]-6-methyl-3-oxo-6,8-dihydro-5H-imidazo[1,5-a]pyrazine-1-carboxamide]
  pEC50: 5.30 to 6.30
